1 compound from US4405627A, “Diphenylpropylamino-pyridine compounds useful as medicines” (Italiana Schoum S.p.A., priority 1979, dated 1983) can be followed below.

Counter-ions that a name gives are not always drawn.

In series [1] the test system is rabbit ileum. The experiment in a line: Spontaneous motility in vitro of rabbit ileum. On the set-up: species or system rabbit (New Zealand male). As to conditions: Oryctolagus cuniculus; 50% reduction of amplitude of the basal contraction; Tyrode, 37° C.; read-out: CI50 (the source's name). The procedure:
The spontaneous motility of the preparations was measured by a isotonic transducer connected with a microdynamometer. Each preparation was previously left dipped for about one hour in the solution up to reach the osmotic equilibrium.
After this time the single compounds were poured in the bath in gradual doses up to notice the quite total disappearance of spontaneous activity in the organ. For sake of comparison parallel tests with papaverine were carried out.

In the next series the test system is mouse. Description: Acute toxicity (DL50) in mouse. In kind it is in vivo. As to conditions: result in words; orally and intraperitoneally. The procedure: (§1) The determination of the lethal dose to 50% of the animals which were treated with the examined substances was obtained by using male Swiss mice averaging 22 g and by considering two administration ways: oral and intraperitoneal.
(§2) Groups of six animals of each dose were prepared which were kept under observation for 7 days and fasting since the evening before the experience.
(§3) During the observation period possible and clear changes in activity and behaviour were controlled by using the Irwin test: a behavioural outline of the treated animals was obtained with respect to other subjects which received reference drugs.
(§4) The calculation of acute toxicity was carried out by using the Litchfield and Wilcoxon procedure (J. Pharmac. Exp. Ther. 96, 99, 1949).
(§5) The acute toxicity values in mg/kg are given in table 9 in the form of average values with the relevant fiducial limits in comparison with papaverine.

A short description of series [2]: Acute toxicity (DL50) in mouse. Format: in vivo. To be noted: mouse, in vivo. The procedure: as §1, §2, §3, §4, §5
A further series in a line: Solubility. Format: physicochemical. As to conditions: saline; read-out: maximum dose consistent with the total solubility in saline.
The test system of series [3] is acetylcholine-induced chromodacryorrhea. Description: Anticholinergic activity on chromodacryorrhea from acetylcholine. In kind it is in vivo, rat (male Wistar). The procedure:
(§6) In order to evaluate the possible undesirable collateral systemic effects, tests of central and peripheral anticholinergic activity were carried out by using two animal species, mouse and rat.
Another series of experiments was carried out on male Wistar rats averaging 150 g in order to point out the anticholinergic activity at the glandular level.
A first control group consisting of six animals was subcutaneously injected with 160 mcg of acetylcholine.

The subject of series [4] is guinea pig ileum. Description: BaCl2-induced contraction on guinea pig ileum in vitro. Details: species or system guinea pig (Whitish female). The procedure: (§7) On the guinea pig ileum, which has a minimum intrinsic motility but a remarkable sensibility to agents causing a contracture or a relaxation of the intestinal smooth muscular system, it was possible to further evaluate the spasmolytic activity of the examined substances. As spasmogenic agents acetylcholine and BaCl2 were used which were respectively added to the bath at final concentrations of 0.1 mcg/ml and 50 mcg/ml.
(§8) Ten preparations of guinea pig ileum for each compound were prepared, yet maintaining the same dose range which was used on rabbit ileum.
(§9) The contractions were measured by means of an isotonic transducer connected with a microdynamometer. Each preparation was left dipped for about 30 minutes up to reach the equilibrium.
(§10) After this time, the single doses of each substance to be examined were introduced three minutes before the spasmogenic substance which was contacted with the preparation for 1 minute. Before the subsequent dose of drug was introduced, the tested organ was allowed to recover the basal conditions and this was ascertained by using the only spasmogenic substance. The process was repeated for all the other concentrations. Afterwards the comparison with the reference spasmolytic substance having a known activity, namely papaverine, was carried out yet working in the same conditions and according to the same procedure.

For series [5], the system named is carbachol-stimulated intestinal motility. The experiment in a line: Effect on intestinal progress in rats after excitation with carbachol. In kind it is in vivo, rat. To be noted: 40 mg/kg i.p.; carbachol 30 mcg/kg i.p.; mean of ten ± standard errors; non-stimulated controls 55.7 ± 2.23, stimulated controls 77.95 ± 1.72. The procedure: Subsequently a further series of tests were carried out in order to evaluate the capability of some examined compounds in hindering the stimulating action on intestinal motility of a dose of carbachol at the concentration of 30 mcg/kg when intraperitoneally administered. Carbachol or carbamylcholine chloride is a known substance endowed with parasympathomimetic action.
The control group was given an equal volume of saline.
The survey of the data as given in tables 6 was carried out as previously described by considering the percent intestinal progress of opaque meal with respect to the total length of small intestine.

For a further series, the system named is small intestine. Description: Effect on the intestinal progress of opaque meal in rat. In kind it is in vivo, rat (Male Wistar). To be noted: for Progress %: 40 minutes after opaque meal, mean of ten ± standard error, controls 81.76 ± 2.33. Here is the method: Male Wistar rats weighing 150-180 g were employed subdivided in groups of ten subjects, which were maintained fasting for 18 hours before the test.
Two administration ways were considered: oral and intraperitoneal.
In the first set of tests to every group of animals each compound was orally administered in the form of an aqueous solution or suspension in gum-arabic (10% in water) 40 minutes before an opaque meal consisting of a suspension of 5% vegetable charcoal in gum-arabic (20% in water).
The animals were killed by cranial injury 40 minutes after the oral administration of the opaque meal and the small intestine was drawn. To the control group an equal volume of saline was administered in the same administration way. The second set of tests was carried out by administering intraperitoneally the compounds 30 minutes before the opaque meal. The animals were killed 40 minutes after the swallowing of the alimentary bolus and the small intestine was drawn; to the control group an equal volume of saline was injected. The total length of small intestine and the progress of opaque meal were measured in each killed animal.

Series [6] concerns rabbit ileum. Description: BaCl2-induced contraction on isolated rabbit ileum. To be noted: Oryctolagus cuniculus; 50% reduction of the BaCl2-induced contraction; BaCl2 50 mcg/ml; read-out: CI50 (the source's name). The source says: The activity of same compounds in antagonizing the spasm as caused by BaCl2 introduced in the bath at a concentration of 50 mcg/ml one minute before each test was studied. Also for this preparation a comparison with papaverine was at last carried out.

In series [7] the test system is effects caused by Tremorin. Description: Central and peripheral anticholinergic activity in mouse after administration of Tremorin. For Miosis: key: +: Presence of the effect (ptyalism, miosis, tremors); -: Lack of the effect (ptyalism, miosis, tremors). For Ptyalism: key: +: Presence of the effect (ptyalism, miosis, tremors); -: Lack of the effect (ptyalism, miosis, tremors). For Tremors: key: +: Presence of the effect (ptyalism, miosis, tremors); -: Lack of the effect (ptyalism, miosis, tremors). Format: in vivo, mouse (Swiss male). As to conditions: for Tremors / Miosis / Ptyalism: Tremorin 25 mg/kg i.p.; for Tremors: central activity; for Miosis / Ptyalism: peripheral activity; for antagonism of the effects of Tremorin / anticholinergic side effects: result in words, hydrochloride. The procedure:
as §6
In the first series of tests Swiss male mice averaging 25 g were used which were subdivided in three groups of 8 animals. […] The third, control group was given an equal volume of saline.
In watching the effects caused by Tremorin during the development of its action, beside the time for the appearance of tremors as an index of the central activity, further parameters such as ptyalism and miosis were contemplated as indexes of peripheral activity.

Series [8] relates to guinea pig ileum. Description: Acetylcholine-induced contraction on guinea pig ileum in vitro. On the set-up: species or system guinea pig (Whitish female). Here is the method:
as §7, §8, §9, §10

The LD50 is the dose at which mortality reaches 50%. Higher therefore signals a less toxic substance. As usually defined, the solubility is the concentration that dissolves in the medium under given conditions. Consider `c1ccc(C(CCNc2ccccn2)c2ccccc2)cc1` [N-(2'-pyridyl)-3,3-diphenylpropylamine hydrochloride], for which the IC50 with rabbit ileum [1] came out at 13 µM; in the series on guinea pig ileum [4] (Cavia porcellus, BaCl2 50 mcg/ml, Tyrode, 37° C., 3 minutes before spasmogen, read-out: CI50 (the source's name)), 5.6 µM; in the series on rabbit ileum [6] it was 14 µM; with guinea pig ileum [8] (Cavia porcellus, acetylcholine 0.1 mcg/ml, Tyrode, 37° C., 3 minutes before spasmogen, read-out: CI50 (the source's name)), 11 µM. Also, the acute toxicity result in the series with mouse is given as “The less toxic compound”. In addition, the LD50 at 168 h in [2] (ip) is 360 mg/kg; in [2] (po), more than 1500 mg/kg. Further, the solubility in “Solubility” worked out at 1000 µg/mL. Further, the Chromodacryorrhea result in series [3] (50 mg/kg i.p., acetylcholine 160 mcg s.c.) is given as “+”. Also, in series [3] (50 mg/kg, result in words), the “effect on acetylcholine-induced chromodacryorrhea” value is reported as “do not modify the acetylcholine-induced chromodacryorrhea”. In addition, in the series on guinea pig ileum [4] (result in words), the “BaCl2-induced contraction on guinea pig ileum” value is “more active than papaverine”. Besides, the Progress % in series [5] amounted to 42.25 ± 3.34%; in the series on small intestine (20 mg/kg i.p.), 62.10 ± 2.54%; with small intestine (50 mg/kg os) it was 67.65 ± 2.54%. The “reducing the progress of an opaque meal” value in the series on small intestine (oral and intraperitoneal, result in words) was “the most active compound in reducing the progress of an opaque meal in both of the considered administration ways”. The Tremors result in [7] (50 mg/kg i.p.) and in series [7] (100 mg/kg i.p.) was “+” in each case. The Miosis entry in series [7] (50 mg/kg i.p.) and in series [7] (100 mg/kg i.p.) was “+” in each case. Moreover, the Ptyalism entry in series [7] (50 mg/kg i.p.) and in series [7] (100 mg/kg i.p.) was “+” in each case. Besides, the results for the “antagonism of the effects of Tremorin / anticholinergic side effects” value in [7] (listed as N-(2'-pyridyl)-3,3-diphenyl-propylamine hydrochloride) and in [7] (listed as N-(2'-pyridyl)-3,3-diphenylpropylamine hydrochloride) were “does not antagonize the ffects of Tremorin neither at a central level nor at a peripheral level” and “does not show anticholinergic side effects at a central level also at high doses”, respectively. Besides, the “acetylcholine-induced contraction on guinea pig ileum” value in the series on guinea pig ileum [8] (result in words) is given as “also effective on the acetylcholine-induced contraction”.
